Test results reported in patent publication US20230149355A1, “COMPOSITIONS AND METHODS FOR MODULATING TRP CHANNEL ACTIVITY” (priority 2020, published 2023).

Assays:
[1] = target: T1, AhR (Homo sapiens, UniProt P35869); conditions: Kim et al., 2020; cited from earlier work
T1 sequence (P35869 11-848): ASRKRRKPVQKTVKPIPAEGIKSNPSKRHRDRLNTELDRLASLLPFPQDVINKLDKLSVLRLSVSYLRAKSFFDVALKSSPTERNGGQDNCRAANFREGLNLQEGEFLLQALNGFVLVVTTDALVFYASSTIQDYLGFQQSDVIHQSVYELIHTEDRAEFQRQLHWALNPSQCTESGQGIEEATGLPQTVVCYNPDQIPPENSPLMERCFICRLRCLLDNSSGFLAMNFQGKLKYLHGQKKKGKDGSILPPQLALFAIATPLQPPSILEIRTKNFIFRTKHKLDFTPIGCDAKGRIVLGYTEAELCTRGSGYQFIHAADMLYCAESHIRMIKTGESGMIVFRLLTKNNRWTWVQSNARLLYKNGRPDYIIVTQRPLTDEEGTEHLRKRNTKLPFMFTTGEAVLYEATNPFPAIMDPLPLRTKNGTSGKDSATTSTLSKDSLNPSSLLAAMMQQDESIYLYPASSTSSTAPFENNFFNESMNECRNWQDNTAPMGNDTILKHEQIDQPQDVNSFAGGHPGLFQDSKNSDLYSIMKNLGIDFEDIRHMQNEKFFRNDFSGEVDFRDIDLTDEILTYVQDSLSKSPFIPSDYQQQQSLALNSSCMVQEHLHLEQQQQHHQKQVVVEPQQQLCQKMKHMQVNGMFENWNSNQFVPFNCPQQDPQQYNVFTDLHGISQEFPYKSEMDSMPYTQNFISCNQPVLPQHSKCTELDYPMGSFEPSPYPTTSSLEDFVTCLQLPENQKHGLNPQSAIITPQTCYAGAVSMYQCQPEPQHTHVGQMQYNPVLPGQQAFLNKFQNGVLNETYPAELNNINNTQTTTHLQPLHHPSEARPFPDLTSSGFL

[2] = test system: AhR signaling; conditions: 0.05 μM; cited from earlier work
[3] = test system: E. tarda; experiment: Intestinal E. tarda mCherry accumulation in zebrafish treated with AhR inhibitors; format: in vivo; conditions: AhR inhibitor 1 μM or folic acid 10 μM, 3 dpf to 6 dpf
Method: For E. tarda colonization experiments, fertilized zebrafish eggs were collected, sorted and transferred into a cell culture flask containing 80 mL GZM at 0 dpf. At 3 dpf, dead embryos and 60 mL GZM were removed and replaced with 50 mL fresh GZM in each flask. To facilitate consistent commensal gut bacterial colonization, an additional 10 mL of filtered system water (5 μm filter, SLSV025LS, Millipore) were added to each flask. Overnight E. tarda mCherry culture was harvested, washed three times with GZM. 150 μL of GZM-washed E. tarda mCherry culture were inoculated into each flask. The E. tarda concentration is ˜10^6 CFU/ml. […] At 6 dpf, zebrafish larvae were subjected to fluorescence imaging analysis or CFU quantification. For fluorescence imaging analysis, zebrafish larvae were anesthetized with Tricaine ([…]), mounted in 3% methylcellulose and imaged with a Leica M205 FA upright fluorescence stereomicroscope equipped with a Leica DFC 365FX camera. For CFU quantification, digestive tracts were dissected and transferred into 1 mL sterile PBS which was then mechanically disassociated using a Tissue-Tearor (BioSpec Products, 985370). […] The mCherry+ colonies were quantified from each plate and E. tarda colony forming units (CFUs) per fish were calculated. […]

[4] = test system: intestinal motility; experiment: Zebrafish intestinal motility (PIV-Lab velocity analysis); format: in vivo; conditions: AhR inhibitor 10 μM or folic acid 10 μM for 2 hours
Method: For EEC Trpa1 activation using the Optovin platform, zebrafish larvae were treated with 10 μM Optovin overnight. Following Optovin treatment, unanesthetized zebrafish were mounted in 1% LMA and imaged under a 780 upright Zeiss confocal microscope using 20× water objective lenses. For all the experiments, the mid-intestine region was imaged (FIG. 10D). The intestinal epithelium was selected as the region of interest (ROI) (FIG. 10A). Serial images were obtained at 1 s/frame. A 405 nm pulse of light was applied to the ROI at 1 pulse/10 s. For some experiments (FIG. 7D-F, FIG. 10B-G), the images were obtained at 10 s/frame.
The zebrafish intestinal motility is quantified through recorded image series of zebrafish intestine using the method similar as previously described (Ganz et al., 2018). Intestinal p velocity and v velocity were used to estimate intestinal motility in zebrafish as previously described using the PIV-Lab MATLAB app (Ganz et al., 2018). A positive value of the μ velocity indicates an anterograde intestinal movement and a negative value of the μ velocity indicates a retrograde intestinal movement. The time-course p velocity number is plotted as heatmaps. When calculating the mean velocity, only the mean velocity magnitude was calculated, which therefore doesn't account for the movement direction. The MTrackJ FIJI plugin was used to quantify the mean velocity magnitude (Meijering et al., 2012).

Structure (SMILES): Nc1nc2ncc(CNc3ccc(C(=O)N[C@@H](CCC(=O)O)C(=O)O)cc3)nc2c(=O)[nH]1 [Folic acid]
- Concentration at which it acts as a competitive AhR antagonist (as low as) [1]: 10 ng/mL
- Inhibition of AhR signaling in early zebrafish embryos [2]: inhibits
- Effect on E. tarda intestinal accumulation [3]: insufficient to block
- Effect on Optovin-UV induced intestinal motility change [4]: insufficient to block
